Values quoted from earlier work in patent US11337932B2, “Transdermal therapeutic system containing asenapine and polysiloxane or polyisobutylene” (LTS LOHMANN Therapie-Systeme AG, priority 2016, dated 2022).

How the values were obtained:
[1] = target: serotonin 5-HT2A receptors (Homo sapiens, UniProt P28223); settings: background statement; antagonist at dopamine D2 and serotonin 5-HT2A receptors
[2] = if ingested

Sequence of serotonin 5-HT2A receptors (P28223 whole entry): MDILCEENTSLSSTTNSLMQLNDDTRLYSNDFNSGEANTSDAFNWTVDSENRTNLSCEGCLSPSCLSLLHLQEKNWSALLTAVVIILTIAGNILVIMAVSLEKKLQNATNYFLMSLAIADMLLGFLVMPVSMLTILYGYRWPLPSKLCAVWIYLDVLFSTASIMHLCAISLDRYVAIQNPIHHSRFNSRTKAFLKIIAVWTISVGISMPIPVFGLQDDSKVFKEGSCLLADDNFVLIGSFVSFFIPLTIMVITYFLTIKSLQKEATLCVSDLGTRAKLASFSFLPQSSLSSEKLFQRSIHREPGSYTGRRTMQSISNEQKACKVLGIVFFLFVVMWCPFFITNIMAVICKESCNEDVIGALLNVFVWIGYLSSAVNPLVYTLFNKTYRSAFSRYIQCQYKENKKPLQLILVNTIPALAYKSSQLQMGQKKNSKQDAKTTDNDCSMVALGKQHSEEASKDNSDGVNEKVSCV

affinity [1]: high affinity | bioavailability [2]: < 2%
Compound: CN1C[C@H]2c3ccccc3Oc3ccc(Cl)cc3[C@@H]2C1 (relative stereo) [asenapine, (3aRS,12bRS)-rel-5-chloro-2,3,3a,12b-tetrahydro-2-methyl-1H-dibenz[2,3:6,7]oxepino[4,5-c]pyrrole]
